Laboratory results taken from patent publication US10072005B2, “4-azaindole derivatives” (EISAI R&D MANAGEMENT CO., LTD., priority 2013, dated 2018).

System: Male Lister Hooded rats
Assay: Novel Object Recognition test
Assay type: in vivo
Conditions: rat, 24 h delay
Method: The Novel Object Recognition test (NOR) is based on the greater spontaneous exploration of a novel object, compared with a familiar object, observed in rodents (Behav. Brain Res., 1988, 31(1), 47-59). […] Therefore, it is considered to be analogous to recognition memory tests used in human clinical testing. Male Lister Hooded rats were assessed for object recognition in a test apparatus comprising of a perspex test arena housed within a sound attenuating chamber. Video images of behaviour were captured by digital camera and recorded to a computer. Rats were habituated to the test arena on four occasions prior to testing. Habituation sessions replicated the test day sequence exactly with the exception of object presentation. On test days, each rat was placed into the test arena and 3 minutes later the rat was presented with two identical objects (plastic shapes). The time spent actively exploring the objects during a 3-minute test period (T1) was recorded. Following T1 rats were returned to home cages. After 24 hours each rat was again placed in the test arena and 3 minutes later was presented with one of the now familiar objects and a novel object, and again the time spent actively exploring the objects during a 3-minute test period (T2) was recorded. The presentation order and position of objects (left/right) was randomised within groups to prevent bias from order or place preference. Objects were cleaned with 70% ethanol solution between trials to remove any olfactory/taste cues. Compounds were administered by oral gavage at an appropriate pre-treatment time prior to T1 and T2 (n=12) at dosage ranges between 0.03 and 3 mg/kg. In some experiments the 5-HT6 receptor antagonist N-(3,5-dichloro-2-methoxyphenyl)-4-methoxy-3-(piperazin-1-yl)benzenesulfonamide (CAS 402713-80-8) (10 mg/kg p.o.; 4 h pre-treatment time) was included as a positive control. Vehicle controls (1% methylcellulose in water) were included for comparison in each study. Results are expressed as the d2 index (difference in time spent exploring novel and familiar objects/total object exploration in T2).

O=C(N[C@H]1CCCC[C@@H]1O)c1cn(Cc2ccc(F)cc2)c2cccnc12 [Example 5, 1-(4-Fluorobenzyl)-N-((1S,2S)-2-hydroxycyclohexyl)-1H-pyrrolo[3,2-b]pyridine-3-carboxamide]
d2 index [mean ± SEM] (0.03 mg/kg p.o.): [0.04 ± 0.06]
d2 index [mean ± SEM] (0.1 mg/kg p.o.): [0.20 ± 0.05]**
d2 index [mean ± SEM] (0.3 mg/kg p.o.): [0.28 ± 0.05]***
